Entries after “also recorded” stand apart in the source; their conditions may differ.
Legend:
Assay type in all cases: cell-based
[1] = system: EV-transfected HMC1.2 mast cells; assay: Colony outgrowth after drug removal, empty vector transfected cells; settings: all concentrations, 5 days after drug removal
From the text: (§1) Drug treatments were removed and colony outgrowth of viable cells was monitored after 5 or 13 additional days.
(§2) Drug treatments were removed and colony outgrowth of viable cells was monitored after 5 or 10 additional days.

[2] = system: N-ras G12D-transfected HMC1.2 cells; assay: Colony outgrowth after drug removal, N-ras G12D transfected cells; settings: all concentrations, 5 days after drug removal
From the text: as §1, §2

[3] = system: HMC1.2 KIT V560G/D816V mast cell line; assay: Cell proliferation, HMC1.2 KIT V560G/D816V mast cell line; settings: 72 h, read-out: IC50, inhibition of cell proliferation
Protocol: (§3) Assays were conducted in 96 well plates with 10,000 cells seeded per well.

[4] = system: HMC1.1 KIT V560G mast cell line; assay: Cell proliferation, HMC1.1 KIT V560G mast cell line; settings: 72 h, read-out: IC50, inhibition of cell proliferation
Protocol: as §3

[5] = system: HMC1.2 mast cells (KIT D816V); assay: Colony outgrowth in soft agar after drug removal; settings: all concentrations, 10 days treatment, 5 days after drug removal
From the text: Drug treatments were removed and colony outgrowth of viable cells was monitored after 5 additional days.

Row | SMILES | colony outgrowth, single agent [1] | colony outgrowth, single agent [2] | IC50 [3] [nM] | IC50 [4] [nM] | colony outgrowth, single agent [5]
1 | CCn1c(=O)c(-c2cc(NC(=O)Nc3ccccc3)c(F)cc2Br)cc2cnc(NC)cc21 [Compound A, 1-[4-bromo-5-[1-ethyl-7-(methylamino)-2-oxo-1,2-dihydro-1,6-naphthyridin-3-yl]-2-fluorophenyl]-3-phenylurea] | colony outgrowth at all concentrations; also recorded: eradication was not observed | colony outgrowth at all concentrations; also recorded: eradication was not observed |  |  | 
2 | CCn1c(=O)c(-c2cc(NC(=O)Nc3ccccc3)c(F)cc2Br)cc2cnc(N)cc21 [Compound B, 1-(5-(7-amino-l-ethyl-2-oxo-1,2-dihydro-1,6-naphthyridin-3-yl)-4-bromo-2-fluorophenyl)-3-phenylurea] |  |  | 61 | 2.3 | colony outgrowth at all concentrations; also recorded: eradication was not observed
3 | Cn1cnc2c(F)c(Nc3ccc(Br)cc3F)c(C(=O)NOCCO)cc21 [binimetinib] |  |  |  |  | colony outgrowth at all concentrations; also recorded: eradication was not observed
4 | O=C(c1ccc(F)c(F)c1Nc1ccc(I)cc1F)N1CC(O)([C@@H]2CCCCN2)C1 [cobimetinib, reference compound] | colony outgrowth at all concentrations; also recorded: eradication was not observed | colony outgrowth at all concentrations; also recorded: eradication was not observed |  |  | colony outgrowth at all concentrations

Reference: patent publication US12102620B2, “Combination therapy for the treatment of mastocytosis” (Deciphera Pharmaceuticals, LLC, priority 2018, dated 2024)
